Results from patent US20260223850A1, “SUBSTITUTED PYRROLIDONE COMPOUND, PREPARATION METHOD THEREFOR, COMPOSITION AND APPLICATION THEREOF” (QINGDAO KINGAGROOT CHEMICAL COMPOUND CO., LTD., priority 2023, published 2026).

Columns and labels:
Type in all cases: in vivo
Echinochloa crusgalli = assay: Seedling stage sealing experiment for water-seeding; conditions: 120 g a.i./ha, 15 days, fresh weight control rate
Source text: (§1) The activity level criteria for plant damage (i.e., growth control rate) are as follows: • Level 9: completely dead; • Level 8: growth control rate greater than or equal to 90% and less than 100%; • Level 7: growth control rate greater than or equal to 80% and less than 90%; • Level 6: growth control rate greater than or equal to 70% and less than 80%; • Level 5: growth control rate greater than or equal to 50% and less than 70%; • Level 4: growth control rate greater than or equal to 30% and less than 50%; • Level 3: growth control rate greater than or equal to 20% and less than 30%; • Level 2: growth control rate greater than or equal to 10% and less than 20%; • Level 1: growth control rate less than 10%; • Level 0: no effect.
(§2) The above growth control rates are fresh weight control rates.
(§3) Echinochloa phyllopogon, Digitaria sanguinalis, Huaidao (rice cultivar), etc. were broadcasted on the surface of nutrition bowls filled with soil and fully covered by soil. The foregoing well-prepared nutrition bowls were then placed in a cultivation box with water filled to a suitable height to keep the soil in the nutrition bowls moist. A test compound of the present invention was individually dissolved with acetone, then diluted into solution of a certain concentration using a certain amount of water, and sprayed using a spray tower. The plants were placed on a greenhouse seedbed and cultured for 15 days, and the experimental results were then collected. The compound was applied at 120, 60, 30 and 15 g a.i./ha in triplicate, and the results were averaged.

Huaidao (rice cultivar) = assay: Seedling stage sealing experiment for water-seeding (crop safety); conditions: 120 g a.i./ha, 15 days, fresh weight control rate; for Huaidao (rice cultivar) plant damage level: seedling stage sealing; for Huaidao (rice cultivar) plant damage level (growth control rate): spray, seedling stage sealing for water-seeding
Source text: as §1, §2, §3

Echinochloa phyllopogon = assay: Seedling stage sealing experiment for water-seeding; conditions: 120 g a.i./ha, 15 days, fresh weight control rate
Source text: as §1, §2, §3

[1] = spray, seedling stage sealing for water-seeding

| Structure (SMILES) | Echinochloa crusgalli activity level (growth control rate) (Echinochloa crusgalli; seedling stage sealing) | Echinochloa phyllopogon activity level (growth control rate) (Echinochloa phyllopogon; seedling stage sealing) | further results |
| --- | --- | --- | --- |
| Cc1cc(C)cc([C@H]2CN(C)C(=O)[C@@H]2C(=O)Nc2cnn(C)c2C2=CCCC2)c1 [280′] | 6 (Level 6: growth control rate greater than or equal to 70% and less than 80%) |  | Huaidao (rice cultivar) plant damage level (Huaidao (rice cultivar)): 0 |
| Cc1ccc(C2CN(C)C(=O)C2C(=O)Nc2cnn(C)c2C(F)(F)F)cc1C (centres unmarked) [Compound 488] |  |  | Echinochloa crusgalli activity level (growth control rate) (Echinochloa crusgalli; [1]): 9; Echinochloa phyllopogon activity level (growth control rate) (Echinochloa phyllopogon; [1]): 9 |
| C=C(C)c1ccc(C2CN(C)C(=O)C2C(=O)Nc2cnn(C)c2Cl)cc1 (centres unmarked) [Compound 252] | 7 (Level 7: growth control rate greater than or equal to 80% and less than 90%) | 9 |  |
| Cc1cccc([C@H]2CN(C)C(=O)[C@@H]2C(=O)Nc2cnn(C)c2[S+](C)[O-])c1 (some centres unmarked) [530′] |  |  | Echinochloa crusgalli activity level (growth control rate) (Echinochloa crusgalli; [1]): 9; Huaidao (rice cultivar) plant damage level (growth control rate) (Huaidao (rice cultivar)): 0 |
| CN1CC(c2cccc(C(F)(F)F)c2)C(C(=O)Nc2cnn(C)c2CF)C1=O (centres unmarked) [Compound 477] |  |  | Echinochloa crusgalli activity level (growth control rate) (Echinochloa crusgalli; [1]): 9; Huaidao (rice cultivar) plant damage level (growth control rate) (Huaidao (rice cultivar)): 0 |
| CSc1c(NC(=O)[C@H]2C(=O)N(C)C[C@@H]2c2cc(C)cc(C)c2)cnn1C [431′] | 9 | 9 |  |
| CN1C[C@H](c2cccc(Oc3ccc(F)cn3)c2)[C@@H](C(=O)Nc2cnn(C)c2Cl)C1=O [52′] | 9 |  | Huaidao (rice cultivar) plant damage level (Huaidao (rice cultivar)): 0 |
| Cc1ccc([C@H]2CN(C)C(=O)[C@@H]2C(=O)Nc2cnn(C)c2C)cc1 [415′] | 9 | 9 |  |
| CN1CC(c2ccc(OC(F)(F)F)cc2)C(C(=O)Nc2cnn(C)c2Cl)C1=O (centres unmarked) [Compound 254] | 5 (Level 5: growth control rate greater than or equal to 50% and less than 70%) | 5 (Level 5: growth control rate greater than or equal to 50% and less than 70%) |  |
| CO/N=C/c1cccc([C@H]2CN(C)C(=O)[C@@H]2C(=O)Nc2cnn(C)c2Cl)c1 [232′] | 6 (Level 6: growth control rate greater than or equal to 70% and less than 80%) |  |  |
| Cc1cc(C)cc([C@H]2CN(C)C(=O)[C@@H]2C(=O)Nc2cnn(C)c2C(F)(F)C(F)(F)F)c1 [428′] | 6 (Level 6: growth control rate greater than or equal to 70% and less than 80%) |  | Huaidao (rice cultivar) plant damage level (Huaidao (rice cultivar)): 0 |
| CSc1c(C(F)(F)F)ccc(C2CN(C)C(=O)C2C(=O)Nc2cnn(C)c2Cl)c1Cl (centres unmarked) [Compound 330] | 6 (Level 6: growth control rate greater than or equal to 70% and less than 80%) | 5 (Level 5: growth control rate greater than or equal to 50% and less than 70%) |  |
| Cc1cc(C)cc([C@H]2CN(C)C(=O)[C@@H]2C(=O)Nc2cnn(C)c2-c2cscn2)c1 [551′] |  |  | Echinochloa crusgalli activity level (growth control rate) (Echinochloa crusgalli; [1]): 9; Huaidao (rice cultivar) plant damage level (growth control rate) (Huaidao (rice cultivar)): 0 |
| COc1cc([C@H]2CN(C)C(=O)[C@@H]2C(=O)Nc2cnn(C)c2Cl)cc(OC)c1OC [449′] |  |  | Echinochloa crusgalli activity level (growth control rate) (Echinochloa crusgalli; [1]): 6 (Level 6: growth control rate greater than or equal to 70% and less than 80%); Huaidao (rice cultivar) plant damage level (growth control rate) (Huaidao (rice cultivar)): 0 |
| CSc1c(NC(=O)[C@H]2C(=O)N(C)C[C@@H]2c2cccc(C(F)(F)F)c2)cnn1C [479′] |  |  | Echinochloa crusgalli activity level (growth control rate) (Echinochloa crusgalli; [1]): 9; Echinochloa phyllopogon activity level (growth control rate) (Echinochloa phyllopogon; [1]): 9 |
| CN1C[C@H](c2cccc(C(F)(F)F)c2)[C@@H](C(=O)Nc2cnn(C)c2N)C1=O [198′] | 5 (Level 5: growth control rate greater than or equal to 50% and less than 70%) |  |  |
| Cc1cccc([C@H]2CN(C)C(=O)[C@@H]2C(=O)Nc2cnn(C(F)F)c2C2CC2)c1 [395′] | 9 | 9 |  |
| CN1C[C@H](c2cccc(OC(F)(F)F)c2)[C@@H](C(=O)Nc2cnn(C(F)F)c2Cl)C1=O [414′] | 9 | 9 |  |
| COCc1ccc([C@H]2CN(C)C(=O)[C@@H]2C(=O)Nc2cnn(C)c2Cl)cc1 [253′] | 6 (Level 6: growth control rate greater than or equal to 70% and less than 80%) |  |  |
| CN1C[C@H](c2cccc(Oc3ccccn3)c2)[C@@H](C(=O)Nc2cnn(C)c2Cl)C1=O [360′] | 7 (Level 7: growth control rate greater than or equal to 80% and less than 90%) |  |  |

| Structure (SMILES) | Echinochloa crusgalli activity level (growth control rate) (Echinochloa crusgalli; seedling stage sealing) | Echinochloa phyllopogon activity level (growth control rate) (Echinochloa phyllopogon; seedling stage sealing) | further results |
| --- | --- | --- | --- |
| Cc1ccc([C@H]2CN(C)C(=O)[C@@H]2C(=O)Nc2cnn(C)c2Cl)s1 [335′] | 7 (Level 7: growth control rate greater than or equal to 80% and less than 90%) |  |  |
| CN1CC(c2cc(F)cc(F)c2F)C(C(=O)Nc2cnn(C)c2Cl)C1=O (centres unmarked) [Compound 332] | 5 (Level 5: growth control rate greater than or equal to 50% and less than 70%) |  |  |
| CCc1c(NC(=O)[C@H]2C(=O)N(C)C[C@@H]2c2cccc(C(F)(F)F)c2)cnn1C(F)F [403′] | 9 | 9 |  |
| CN1C[C@H](c2cccc(C(F)(F)F)c2)[C@@H](C(=O)Nc2cnn(C)c2C(F)(F)F)C1=O [404′] | 9 | 9 |  |
| CN1C[C@H](c2cccc(C(F)(F)F)c2)[C@@H](C(=O)Nc2cnn(C)c2Cl)C1=O [1′] | 9 | 6 (Level 6: growth control rate greater than or equal to 70% and less than 80%) |  |
| CN1CC(c2cc(F)cc(C(F)(F)F)c2)C(C(=O)Nc2cnn(C)c2C(F)(F)F)C1=O (centres unmarked) [Compound 508] |  |  | Echinochloa crusgalli activity level (growth control rate) (Echinochloa crusgalli; [1]): 9; Echinochloa phyllopogon activity level (growth control rate) (Echinochloa phyllopogon; [1]): 9 |
| CCc1c(NC(=O)[C@H]2C(=O)N(C)C[C@@H]2c2cccc(C)c2)cnn1C(F)F [466′] |  |  | Echinochloa crusgalli activity level (growth control rate) (Echinochloa crusgalli; [1]): 9; Echinochloa phyllopogon activity level (growth control rate) (Echinochloa phyllopogon; [1]): 9 |
| CN1C[C@H](c2ccc(C(F)(F)F)c(F)c2Cl)[C@@H](C(=O)Nc2cnn(C)c2Cl)C1=O [329′] | 7 (Level 7: growth control rate greater than or equal to 80% and less than 90%) | 6 (Level 6: growth control rate greater than or equal to 70% and less than 80%) |  |
| Cc1ccc([C@H]2CN(C)C(=O)[C@@H]2C(=O)Nc2cnn(C(F)F)c2Cl)cc1F [444′] |  |  | Echinochloa crusgalli activity level (growth control rate) (Echinochloa crusgalli; [1]): 9; Echinochloa phyllopogon activity level (growth control rate) (Echinochloa phyllopogon; [1]): 9 |
| CCn1ncc(NC(=O)[C@H]2C(=O)N(C)C[C@@H]2c2cccc(C(F)(F)F)c2)c1Cl [95′] | 9 | 8 (Level 8: growth control rate greater than or equal to 90% and less than 100%) |  |
| CN1CC(c2ccc(-c3cccc(C(F)(F)F)c3)cc2)C(C(=O)Nc2cnn(C)c2Cl)C1=O (centres unmarked) [Compound 261] | 6 (Level 6: growth control rate greater than or equal to 70% and less than 80%) | 5 (Level 5: growth control rate greater than or equal to 50% and less than 70%) |  |
| Cc1cc(C)cc([C@H]2CN(C)C(=S)[C@@H]2C(=S)Nc2cnn(C)c2Cl)c1 [451′] |  |  | Echinochloa crusgalli activity level (growth control rate) (Echinochloa crusgalli; [1]): 8 (Level 8: growth control rate greater than or equal to 90% and less than 100%); Echinochloa phyllopogon activity level (growth control rate) (Echinochloa phyllopogon; [1]): 7 (Level 7: growth control rate greater than or equal to 80% and less than 90%) |
| Cc1cc(C)cc([C@H]2CN(C)C(=O)[C@@H]2C(=O)Nc2cnn(C)c2C#N)c1 [434′] | 9 | 9 |  |
| Cc1cc([C@H]2CN(C)C(=O)[C@@H]2C(=O)Nc2cnn(C(F)F)c2Cl)cc(C)c1C [515′] |  |  | Echinochloa crusgalli activity level (growth control rate) (Echinochloa crusgalli; [1]): 9; Echinochloa phyllopogon activity level (growth control rate) (Echinochloa phyllopogon; [1]): 9 |
| CSc1c(NC(=O)[C@H]2C(=O)N(C)C[C@@H]2c2cccc(C)c2)cnn1C [393′] | 9 | 9 |  |
| Cc1ccccc1[C@H]1CN(C)C(=O)[C@@H]1C(=O)Nc1cnn(C)c1Cl [124′] | 6 (Level 6: growth control rate greater than or equal to 70% and less than 80%) |  |  |
| CC(C)c1ccc([C@H]2CN(C)C(=O)[C@@H]2C(=O)Nc2cnn(C)c2Cl)cc1 [245′] |  | 5 (Level 5: growth control rate greater than or equal to 50% and less than 70%) |  |
| COc1cc(OC)cc(C2CN(C)C(=O)C2C(=O)Nc2cnn(C)c2Cl)c1 (centres unmarked) [Compound 302] | 6 (Level 6: growth control rate greater than or equal to 70% and less than 80%) | 5 (Level 5: growth control rate greater than or equal to 50% and less than 70%) |  |
| Cc1cc(C)cc([C@H]2CN(C)C(=O)[C@@H]2C(=O)Nc2cnn(C(F)F)c2C2CC2)c1 [429′] | 9 | 9 |  |
| CN1CC(c2ccc3occc3c2)C(C(=O)Nc2cnn(C)c2Cl)C1=O (centres unmarked) [Compound 355] | 5 (Level 5: growth control rate greater than or equal to 50% and less than 70%) |  |  |
